According to patent US20110244078A1 (priority 2010, published 2011):

Experiment: Moisture sensitivity: degradation of the isothiocyanate suspended in aqueous phosphate buffer
Type: physicochemical
Conditions: WMEO (about 25% 4-HBITC) suspended in aqueous phosphate buffer, pH about 3.6, about 20-23° C.
Description: As used herein, the term “moisture sensitive” means that the isothiocyanate compound degrades in the presence of water. This degradation proceeds via a hydrolysis reaction, thereby leading to a reduction in level of the active isothiocyanate antimicrobial agent with time of storage in the presence of water. The method for determining moisture sensitivity is set forth in the Test Method section below. […]
Moisture sensitive isothiocyanate compounds are identified by suspending the isothiocyanate containing material in an aqueous phosphate buffer (pH of about 3.6) at room temperature. […] The extraction procedure is repeated after 24 hours and the level of residual isothiocyanate compound is measured by supercritical fluid chromatography. […]
A white mustard essential oil is generated by adding water to ground white mustard seeds and then extracting the essential oil with supercritical carbon dioxide according to the known processes described in the art. […] The essential oil is suspended in an aqueous phosphate buffer (pH of about 3.6) at room temperature (about 20-23° C.) and the level of 4-hydroxybenzyl isothiocyanate measured at time zero and after about 24 hours of storage as described in the preceding section. […]

SMILES: Oc1ccc(CN=C=S)cc1 [4-hydroxybenzyl isothiocyanate]
- percent reduction in level of 4-hydroxybenzyl isothiocyanate after 24 hours: about 72%
